IC50 data for 31 compounds are collected here from patent US10752624B2, “Kinase inhibitors” (Origenis GmbH, priority 2012, dated 2020).

One test deals with LRRK2 (Homo sapiens, UniProt Q5S007). The test is described as follows: LRRK2-LRRK2 G2019S-Assay (LanthaScreen Eu Kinase Binding Assay). The settings on record: 5 nM LRRK2, 10 nM tracer 236, 2 nM EU-Anti-GST antibody, 1 h at RT; read-out: LRRK2 Activities: IC50. A digest of the protocol: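 In a TR-FRET tracer displacement assay, LRRK2 or its mutants at 5 nM were mixed with 2 nM Eu-anti-GST antibody and 10 nM tracer 236 in kinase buffer A for 1 h at RT. The 665/615 nm emission ratio was plotted against inhibitor concentration, and IC50 came from a variable-slope sigmoidal fit.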
LRRK2, sequence (Q5S007 970-2527 limits assumed): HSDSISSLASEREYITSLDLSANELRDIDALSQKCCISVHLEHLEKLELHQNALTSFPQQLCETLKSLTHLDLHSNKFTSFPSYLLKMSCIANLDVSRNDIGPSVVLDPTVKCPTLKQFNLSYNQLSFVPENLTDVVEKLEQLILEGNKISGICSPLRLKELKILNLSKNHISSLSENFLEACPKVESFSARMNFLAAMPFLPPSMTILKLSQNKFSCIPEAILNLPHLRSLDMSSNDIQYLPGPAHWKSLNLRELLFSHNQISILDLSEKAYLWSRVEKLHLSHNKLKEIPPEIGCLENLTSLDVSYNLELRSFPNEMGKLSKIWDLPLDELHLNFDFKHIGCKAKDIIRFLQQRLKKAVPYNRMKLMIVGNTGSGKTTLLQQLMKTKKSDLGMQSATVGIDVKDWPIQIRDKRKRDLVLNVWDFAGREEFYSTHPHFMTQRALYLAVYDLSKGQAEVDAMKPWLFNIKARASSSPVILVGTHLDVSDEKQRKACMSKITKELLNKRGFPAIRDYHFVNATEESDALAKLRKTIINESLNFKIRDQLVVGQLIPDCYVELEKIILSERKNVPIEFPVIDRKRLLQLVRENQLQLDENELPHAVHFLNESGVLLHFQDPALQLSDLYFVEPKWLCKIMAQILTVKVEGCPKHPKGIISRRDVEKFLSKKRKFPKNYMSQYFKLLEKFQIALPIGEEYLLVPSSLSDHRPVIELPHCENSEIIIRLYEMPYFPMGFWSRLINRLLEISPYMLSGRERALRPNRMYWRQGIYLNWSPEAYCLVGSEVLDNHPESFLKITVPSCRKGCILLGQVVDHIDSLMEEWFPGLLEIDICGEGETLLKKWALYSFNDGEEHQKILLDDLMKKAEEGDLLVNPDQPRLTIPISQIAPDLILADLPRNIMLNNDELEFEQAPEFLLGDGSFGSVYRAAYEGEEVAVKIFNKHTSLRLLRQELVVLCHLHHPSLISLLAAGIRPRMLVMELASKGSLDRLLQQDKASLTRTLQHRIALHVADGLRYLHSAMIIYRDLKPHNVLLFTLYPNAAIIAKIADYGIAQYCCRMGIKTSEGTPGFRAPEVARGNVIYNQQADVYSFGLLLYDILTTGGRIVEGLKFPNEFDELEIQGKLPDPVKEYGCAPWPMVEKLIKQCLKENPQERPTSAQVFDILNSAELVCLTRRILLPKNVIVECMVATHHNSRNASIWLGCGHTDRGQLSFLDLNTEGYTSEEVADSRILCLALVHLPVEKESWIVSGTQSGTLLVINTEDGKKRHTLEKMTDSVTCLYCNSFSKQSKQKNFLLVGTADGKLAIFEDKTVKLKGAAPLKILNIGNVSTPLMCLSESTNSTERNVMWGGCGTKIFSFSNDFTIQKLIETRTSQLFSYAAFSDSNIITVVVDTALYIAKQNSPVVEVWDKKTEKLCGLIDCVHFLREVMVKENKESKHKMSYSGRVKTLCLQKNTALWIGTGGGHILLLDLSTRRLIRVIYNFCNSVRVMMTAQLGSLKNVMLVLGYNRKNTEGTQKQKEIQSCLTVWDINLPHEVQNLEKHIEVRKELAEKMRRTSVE
For `Cc1c(Nc2nc3ccc(S(C)(=O)=O)cc3c3cn[nH]c23)cnn1CCF` [Example 270, N-(1-(2-fluoroethyl)-5-methyl-1H-pyrazol-4-yl)-8-(methylsulfonyl)-3H-pyrazolo[3,4-c]quinolin-4-amine], the IC50 is below 10 nM.
Same read-out and setting: in the case of `COCCn1cc(Nc2nc3ccc(S(C)(=O)=O)cc3c3cn[nH]c23)c(C(F)(F)F)n1` [Example 271, N-(1-(2-methoxyethyl)-3-(trifluoromethyl)-1H-pyrazol-4-yl)-8-(methylsulfonyl)-3H-pyrazolo[3,4-c]quinolin-4-amine] it was 10 to 100 nM; in that of `COCCn1ncc(Nc2nc3ccc(S(C)(=O)=O)cc3c3cn[nH]c23)c1C(F)(F)F` [Example 272, N-(1-(2-methoxyethyl)-5-(trifluoromethyl)-1H-pyrazol-4-yl)-8-(methylsulfonyl)-3H-pyrazolo[3,4-c]quinolin-4-amine], 10 to 100 nM.
On the same count and under the same terms, in the case of `COCCn1cc(Nc2nc3ccc(S(C)(=O)=O)cc3c3cn[nH]c23)c(C#N)n1` [Example 274, 1-(2-methoxyethyl)-4-((8-(methylsulfonyl)-3H-pyrazolo[3,4-c]quinolin-4-yl)amino)-1H-pyrazole-3-carbonitrile] it was 10 to 100 nM; in that of `COCCn1ncc(Nc2nc3cccc(OC)c3c3cn[nH]c23)c1Br` [Example 275, N-(5-bromo-1-(2-methoxyethyl)-1H-pyrazol-4-yl)-9-methoxy-3H-pyrazolo[3,4-c]quinolin-4-amine], 10 to 100 nM.
Still for that read-out and setting: in the case of `COCCn1ncc(Nc2nc3cccc(OC)c3c3cn[nH]c23)c1F` [Example 276, N-(5-fluoro-1-(2-methoxyethyl)-1H-pyrazol-4-yl)-9-methoxy-3H-pyrazolo[3,4-c]quinolin-4-amine] it was 10 to 100 nM; in that of `COCCn1ncc(Nc2nc3ccc(S(C)(=O)=O)cc3c3cn[nH]c23)c1Br` [Example 279, N-(5-bromo-1-(2-methoxyethyl)-1H-pyrazol-4-yl)-8-(methylsulfonyl)-3H-pyrazolo[3,4-c]quinolin-4-amine], 10 to 100 nM.
Turning to `Cc1c(Nc2nc3ccc(S(C)(=O)=O)cc3c3cn[nH]c23)cnn1C1CCOCC1` [Example 281, N-(5-methyl-1-(tetrahydro-2H-pyran-4-yl)-1H-pyrazol-4-yl)-8-(methylsulfonyl)-3H-pyrazolo[3,4-c]quinolin-4-amine], the half-maximal inhibitory concentration (IC50) is 10 to 100 nM.
Still for that read-out and setting: in the case of `COCCn1ncc(Nc2nc3ccc(S(C)(=O)=O)cc3c3cn[nH]c23)c1C` [Example 282, N-(1-(2-methoxyethyl)-5-methyl-1H-pyrazol-4-yl)-8-(methylsulfonyl)-3H-pyrazolo[3,4-c]quinolin-4-amine] it was 100 to 1000 nM; in that of `COc1ccc2nc(Nc3ccc(N4CCC(O)CC4)cc3)c3[nH]ncc3c2c1` [Example 296, 1-(4-((8-methoxy-3H-pyrazolo[3,4-c]quinolin-4-yl)amino)phenyl)piperidin-4-ol], 10 to 100 nM.
On the same count and under the same terms, in the case of `COc1cccc2c1nc(Nc1ccc(N3CCOCC3)cc1)c1[nH]ncc12` [Example 304, 6-methoxy-N-(4-morpholinophenyl)-3H-pyrazolo[3,4-c]quinolin-4-amine] it was 100 to 1000 nM; in that of `COc1cccc2c1nc(Nc1cnn(C(C)C)c1)c1[nH]ncc12` [Example 305, N-(1-isopropyl-1H-pyrazol-4-yl)-6-methoxy-3H-pyrazolo[3,4-c]quinolin-4-amine], 10 to 100 nM.
With `COCCCn1cc(Nc2nc3c(OC)cccc3c3cn[nH]c23)cn1` [Example 306, 6-methoxy-N-(1-(3-methoxypropyl)-1H-pyrazol-4-yl)-3H-pyrazolo[3,4-c]quinolin-4-amine], the IC50 was 100 to 1000 nM.
Still for that read-out and setting: as for `COc1cc(OC)c2nc(Nc3ccc(C(=O)N4CCOCC4)cc3)c3[nH]ncc3c2c1` [Example 308, (4-((6,8-dimethoxy-3H-pyrazolo[3,4-c]quinolin-4-yl)amino)phenyl)(morpholino)methanone], the figure is 10 to 100 nM; as for `CC(C)(O)Cn1cc(Nc2nc3ccc(S(C)(=O)=O)cc3c3cn[nH]c23)cn1` [Example 317, 2-methyl-1-(4-((8-(methylsulfonyl)-3H-pyrazolo[3,4-c]quinolin-4-yl)amino)-1H-pyrazol-1-yl)propan-2-ol], 10 to 100 nM.
The same measure, in the same setting: in the case of `CCN1C(=O)COc2ccc(Nc3nc4ccc(OC)cc4c4c[nH]nc34)cc21` [Example 318, 4-ethyl-6-((8-methoxy-2H-pyrazolo[3,4-c]quinolin-4-yl)amino)-2H-benzo[b][1,4]oxazin-3(4H)-one] it was 100 to 1000 nM.
The same measure, in the same setting: as for `COc1ccc2nc(Nc3cnn(-c4ccccn4)c3)c3n[nH]cc3c2c1` [Example 319, 8-methoxy-N-(1-(pyridin-2-yl)-1H-pyrazol-4-yl)-2H-pyrazolo[3,4-c]quinolin-4-amine], the figure is 10 to 100 nM; as for `COc1ccc2nc(Nc3cnn(C(C)c4ccccc4)c3)c3n[nH]cc3c2c1` (stereo not shown) [Example 320, 8-methoxy-N-(1-(1-phenylethyl)-1H-pyrazol-4-yl)-2H-pyrazolo[3,4-c]quinolin-4-amine], 100 to 1000 nM; as for `COc1ccc2nc(Nc3ccc4c(c3)N(C)C(=O)CO4)c3n[nH]cc3c2c1` [Example 322, 6-((8-methoxy-2H-pyrazolo[3,4-c]quinolin-4-yl)amino)-4-methyl-2H-benzo[b][1,4]oxazin-3(4H)-one], 100 to 1000 nM.
With `Cc1nn(CC(C)(C)O)cc1Nc1nc2ccc(S(C)(=O)=O)cc2c2c[nH]nc12` [Example 325, 2-methyl-1-(3-methyl-4-((8-(methylsulfonyl)-2H-pyrazolo[3,4-c]quinolin-4-yl)amino)-1H-pyrazol-1-yl)propan-2-ol], the IC50 lay within 100 to 1000 nM.
Consider `Cc1c(Nc2nc3ccc(S(C)(=O)=O)cc3c3c[nH]nc23)cnn1CC(C)(C)O` [Example 326, 2-methyl-1-(5-methyl-4-((8-(methylsulfonyl)-2H-pyrazolo[3,4-c]quinolin-4-yl)amino)-1H-pyrazol-1-yl)propan-2-ol], for which the IC50 fell in the range of 100 to 1000 nM.
For `CS(=O)(=O)c1ccc2nc(Nc3cc(C(=O)O)n[nH]3)c3n[nH]cc3c2c1` [Example 335, 5-((8-(methylsulfonyl)-2H-pyrazolo[3,4-c]quinolin-4-yl)amino)-1H-pyrazole-3-carboxylic acid], the IC50 is 100 to 1000 nM.
On the same count and under the same terms, in the case of `CS(=O)(=O)c1ccc2nc(Nc3ccccc3O)c3n[nH]cc3c2c1` [Example 336, 2-((8-(methylsulfonyl)-2H-pyrazolo[3,4-c]quinolin-4-yl)amino)phenol] it was 100 to 1000 nM; in that of `C[C@H]1CCCN1c1cccc(Nc2nc3ccc(S(C)(=O)=O)cc3c3c[nH]nc23)c1` [Example 337, (S)—N-(3-(2-methylpyrrolidin-1-yl)phenyl)-8-(methylsulfonyl)-2H-pyrazolo[3,4-c]quinolin-4-amine], 100 to 1000 nM.
Turning to `CCN1C(=O)COc2ccc(Nc3nc4ccc(S(C)(=O)=O)cc4c4c[nH]nc34)cc21` [Example 342, 4-ethyl-6-((8-(methylsulfonyl)-2H-pyrazolo[3,4-c]quinolin-4-yl)amino)-2H-benzo[b][1,4]oxazin-3(4H)-one], the IC50 lay in the range of 10 to 100 nM.
The same measure, in the same setting: as for `CS(=O)(=O)c1ccc2nc(Nc3ccc4c(c3)NC(=O)CO4)c3n[nH]cc3c2c1` [Example 343, 6-((8-(methylsulfonyl)-2H-pyrazolo[3,4-c]quinolin-4-yl)amino)-2H-benzo[b][1,4]oxazin-3(4H)-one], the figure is 10 to 100 nM.
For `COc1ccc2nc(Nc3cnn(C(C)C(=O)O)c3)c3n[nH]cc3c2c1` (stereo not shown) [Example 347, 2-(4-((8-methoxy-2H-pyrazolo[3,4-c]quinolin-4-yl)amino)-1H-pyrazol-1-yl)propanoic acid], the concentration for half-maximal inhibition (IC50) fell in the range of 100 to 1000 nM.
Same read-out and setting: in the case of `CS(=O)(=O)c1ccc2nc(Nc3ccc4c(c3)N(C(=O)C3CC3)CCC4)c3n[nH]cc3c2c1` [Example 350, cyclopropyl(7-((8-(methylsulfonyl)-2H-pyrazolo[3,4-c]quinolin-4-yl)amino)-3,4-dihydroquinolin-1(2H)-yl)methanone] it was 100 to 1000 nM.

The next test concerns the target T1, SYK kinase (Homo sapiens, UniProt P43405).
T1 construct: purchased Invitrogen, Carlsbad
Kind of test: SYK Assay (OMNIA Kinase Assay, SOX peptide fluorescence). Type of test: biochemical. The settings on record: 1 mM ATP, 10 μM Omnia Peptide Substrate Tyr 7, 30° C., readings for 30 minutes; read-out: SYK Activities: IC50. As to the method:
In the assay OMNIA® KINASE ASSAY by Invitrogen Corporation (Carlsbad) the effect of invention of a compound on the phosphorylation is determined by measurement of fluorescence intensity of a chelation-enhanced fluorophore called SOX. Upon phosphorylation of the peptide by the kinase of interest, Mg2+ is chelated to form a bridge between the SOX moiety and the phosphate group that is transferred to the specific tyrosine on the peptide. The fluorescence intensity is directly proportional to the amount of peptide phosphorylation.
To the wells of an 384 well small volume plate (Greiner, Frickenhausen) are added (i) the compound under test in 5% DMSO/distilled water (2 μl), (ii) 16 μl of the master mix containing ATP, DTT, Kinase Reaction Buffer, Omina Peptide Substrate Tyr 7 resulting in a final concentration of 1 mM ATP, 0.2 mM DTT and 10 μM Peptide Substrate.
The Master Mix and the assay plate was incubated to reaction temperature before the measurement (30° C.). The reaction was started with addition of (iii) 2 μl 4 μg/ml SYK kinase (Invitrogen, Carlsbad). During measurement fluorescence intensity readings were collected using a TECAN M1000 at a wavelength of λex 360/λem 485 nm every 30 s for 30 minutes. The reaction velocity was plotted versus the inhibitor concentration to determine the IC50 using XLFit 5.0 (IDBS, Guildford) to fit to a sigmoidal dose response curve.
With `O=C1CCc2ccc(Nc3nc4c(F)cccc4c4cn[nH]c34)cc2N1` [Example 54, 7-((6-fluoro-3H-pyrazolo[3,4-c]quinolin-4-yl)amino)-3,4-dihydroquinolin-2(1H)-one], the IC50 fell in the range of 100 to 1000 nM.
The same measure, in the same setting: in the case of `COc1cccc2nc(Nc3cnn(C4CCOCC4)c3)c3[nH]ncc3c12` [Example 102, 9-methoxy-N-(1-(tetrahydro-2H-pyran-4-yl)-1H-pyrazol-4-yl)-3H-pyrazolo[3,4-c]quinolin-4-amine] it was 100 to 1000 nM.
On the same count and under the same terms, in the case of `CN1CCC(n2cc(Nc3nc4ccc(S(C)(=O)=O)cc4c4cn[nH]c34)cn2)CC1` [Example 114, N-(1-(1-methylpiperidin-4-yl)-1H-pyrazol-4-yl)-8-(methylsulfonyl)-3H-pyrazolo[3,4-c]quinolin-4-amine] it was below 10 nM.
